Results reported in patent publication US10711006B2, “Selective Bruton's tyrosine kinase inhibitor and use thereof” (HANGZHOU HERTZ PHARMACEUTICAL CO., LTD., priority 2016, dated 2020).
pIC50: −log10 of the molar value.

Tests used:
hERG potassium channel = hERG potassium channel (Homo sapiens (Human), UniProt Q12809); assay: hERG potassium channel inhibitory activity, manual patch clamp in CHO cells; assay type: cell-based; conditions: for pIC50: CHO cells stably expressing hERG, whole-cell patch clamp
Chain of hERG potassium channel (Q12809 whole entry): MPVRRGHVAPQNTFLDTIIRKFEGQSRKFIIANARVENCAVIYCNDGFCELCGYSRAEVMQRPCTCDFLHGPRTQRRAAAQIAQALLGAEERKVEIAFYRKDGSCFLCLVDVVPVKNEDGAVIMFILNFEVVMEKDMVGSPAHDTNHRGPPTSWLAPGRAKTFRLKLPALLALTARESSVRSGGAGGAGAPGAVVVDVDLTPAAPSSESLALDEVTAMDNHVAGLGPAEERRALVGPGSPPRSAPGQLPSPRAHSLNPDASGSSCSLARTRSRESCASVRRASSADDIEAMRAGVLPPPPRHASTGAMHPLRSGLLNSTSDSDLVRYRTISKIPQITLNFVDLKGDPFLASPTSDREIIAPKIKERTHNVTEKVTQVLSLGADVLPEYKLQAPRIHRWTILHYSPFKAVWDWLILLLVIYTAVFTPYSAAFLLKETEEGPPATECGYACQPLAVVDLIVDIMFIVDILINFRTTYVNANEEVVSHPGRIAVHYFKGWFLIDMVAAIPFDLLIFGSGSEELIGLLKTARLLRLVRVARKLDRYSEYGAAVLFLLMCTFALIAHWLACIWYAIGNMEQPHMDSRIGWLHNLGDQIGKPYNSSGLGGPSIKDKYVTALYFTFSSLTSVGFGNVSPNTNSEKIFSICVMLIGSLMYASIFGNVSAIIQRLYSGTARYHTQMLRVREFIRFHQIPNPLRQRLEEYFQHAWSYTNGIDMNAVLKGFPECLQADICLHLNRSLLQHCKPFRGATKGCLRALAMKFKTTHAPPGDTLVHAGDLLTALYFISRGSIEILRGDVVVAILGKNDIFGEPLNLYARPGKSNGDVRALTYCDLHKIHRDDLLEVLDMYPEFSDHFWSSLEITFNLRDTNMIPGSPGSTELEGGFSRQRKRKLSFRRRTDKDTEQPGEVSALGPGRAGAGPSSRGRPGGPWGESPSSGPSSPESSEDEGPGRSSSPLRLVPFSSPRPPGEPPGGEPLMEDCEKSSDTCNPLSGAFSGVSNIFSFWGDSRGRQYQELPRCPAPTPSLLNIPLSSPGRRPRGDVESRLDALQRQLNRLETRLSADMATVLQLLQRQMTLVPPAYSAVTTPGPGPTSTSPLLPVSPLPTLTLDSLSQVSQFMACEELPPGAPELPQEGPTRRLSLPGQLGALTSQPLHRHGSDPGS

BLK = BLK (Homo sapiens (Human), UniProt P51451); assay: Kinase selectivity experiment, BLK; assay type: biochemical; conditions: read-out: Inhibitory activity against BLK (IC50)
Chain of BLK (P51451 whole entry, species assumed): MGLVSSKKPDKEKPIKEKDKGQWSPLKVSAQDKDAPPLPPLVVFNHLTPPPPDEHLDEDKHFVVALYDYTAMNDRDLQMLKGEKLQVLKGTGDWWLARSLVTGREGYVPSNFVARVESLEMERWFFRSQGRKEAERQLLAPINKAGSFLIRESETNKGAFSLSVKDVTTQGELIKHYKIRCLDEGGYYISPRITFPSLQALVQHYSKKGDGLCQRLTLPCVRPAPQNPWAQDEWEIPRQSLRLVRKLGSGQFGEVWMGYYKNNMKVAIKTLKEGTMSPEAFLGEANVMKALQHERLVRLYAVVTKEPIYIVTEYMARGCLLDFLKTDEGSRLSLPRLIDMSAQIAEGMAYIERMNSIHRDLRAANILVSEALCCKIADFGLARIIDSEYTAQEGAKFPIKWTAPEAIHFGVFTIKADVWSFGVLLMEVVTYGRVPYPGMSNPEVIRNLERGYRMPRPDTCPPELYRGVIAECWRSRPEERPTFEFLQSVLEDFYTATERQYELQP
Method: (§1) A 1× kinase base buffer and a reaction stop buffer for respective kinases in the experiment were prepared as required.
(§2) Preparation of Compounds to be Tested:
(§3) 2) diluting each compound at a 5-fold concentration gradient in a 96-well plate to 6 to 7 concentrations and ensuring that the drug volume in each well was 10 μl; and at the same time adding 100 μl of DMSO to prepare a blank control group and also preparing a negative control group without the enzyme substrate; and
(§4) 3) preparing another 96-well plate, adding 10 μl of each of the above compounds to 90 μl of the 1× kinase base buffer and mixing for 10 minutes to be uniform.
(§5) Preparation of the Plate to be Tested:
(§6) 1) 5 μl of the mixed solution prepared as above in the 96-well plate was taken and transferred to a 384-well plate, with two replicate wells for each compound.
(§7) 1) Preparing a 2.5× kinase solution and adding a corresponding 1× kinase base buffer;
(§8) 2) preparing a 2.5× polypeptide solution and adding FAM-labeled polypeptide and ATP in the 1× kinase base buffer; and
(§9) 3) adding 10 μl of 2.5× kinase solution to a 384-well plate to be tested, placing in a room-temperature environment for 10 minutes, and then adding 10 μl of the 2.5× polypeptide solution, reacting at 28° C. for 1 hour, and then adding 25 μl of a reaction stop buffer.
(§10) The Caliper program reads the plate and uses the data to obtain the IC50 values of the corresponding compounds against kinases.

FGR = FGR (Homo sapiens (Human), UniProt P09769); assay: Kinase selectivity experiment, FGR; assay type: biochemical; conditions: read-out: Inhibitory activity against FGR (IC50)
Chain of FGR (P09769 whole entry, species assumed): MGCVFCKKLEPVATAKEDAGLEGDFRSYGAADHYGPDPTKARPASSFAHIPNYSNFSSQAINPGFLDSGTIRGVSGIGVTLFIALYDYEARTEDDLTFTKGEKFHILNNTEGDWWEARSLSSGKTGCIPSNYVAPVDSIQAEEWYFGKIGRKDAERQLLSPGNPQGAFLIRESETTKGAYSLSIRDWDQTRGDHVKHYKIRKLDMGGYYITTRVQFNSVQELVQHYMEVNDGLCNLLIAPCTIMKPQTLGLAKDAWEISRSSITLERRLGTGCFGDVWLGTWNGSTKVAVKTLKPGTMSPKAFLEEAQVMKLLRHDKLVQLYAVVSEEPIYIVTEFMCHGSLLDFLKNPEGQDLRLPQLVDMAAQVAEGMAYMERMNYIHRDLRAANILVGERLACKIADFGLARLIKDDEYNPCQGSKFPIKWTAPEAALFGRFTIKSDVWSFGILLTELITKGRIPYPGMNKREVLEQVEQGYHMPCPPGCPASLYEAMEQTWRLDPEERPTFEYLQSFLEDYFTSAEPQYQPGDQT
Method: as §1, §2, §3, §4, §5, §6, §7, §8, §9, §10

HCK = HCK (Homo sapiens (Human), UniProt P08631); assay: Kinase selectivity experiment, HCK; assay type: biochemical; conditions: read-out: Inhibitory activity against HCK (IC50)
Chain of HCK (P08631 whole entry, species assumed): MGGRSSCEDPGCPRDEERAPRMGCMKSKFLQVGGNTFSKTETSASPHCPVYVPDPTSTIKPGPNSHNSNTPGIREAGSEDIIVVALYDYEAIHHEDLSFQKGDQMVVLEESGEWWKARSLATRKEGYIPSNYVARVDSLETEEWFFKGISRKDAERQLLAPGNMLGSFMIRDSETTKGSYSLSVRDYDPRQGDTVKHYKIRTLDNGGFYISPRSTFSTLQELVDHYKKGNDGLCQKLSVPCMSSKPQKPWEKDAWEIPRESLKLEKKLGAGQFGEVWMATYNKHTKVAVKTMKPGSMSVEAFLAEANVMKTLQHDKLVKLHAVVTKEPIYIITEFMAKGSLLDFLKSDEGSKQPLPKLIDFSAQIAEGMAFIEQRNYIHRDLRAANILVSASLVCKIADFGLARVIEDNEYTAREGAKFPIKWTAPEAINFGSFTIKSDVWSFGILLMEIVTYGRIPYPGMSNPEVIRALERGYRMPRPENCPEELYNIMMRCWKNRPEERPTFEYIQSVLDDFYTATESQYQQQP
Method: as §1, §2, §3, §4, §5, §6, §7, §8, §9, §10

JAK3 = JAK3 (Homo sapiens (Human), UniProt P52333); assay: Kinase selectivity experiment, JAK3; assay type: biochemical; conditions: read-out: Inhibitory activity against JAK3 (IC50)
Chain of JAK3 (P52333 whole entry, species assumed): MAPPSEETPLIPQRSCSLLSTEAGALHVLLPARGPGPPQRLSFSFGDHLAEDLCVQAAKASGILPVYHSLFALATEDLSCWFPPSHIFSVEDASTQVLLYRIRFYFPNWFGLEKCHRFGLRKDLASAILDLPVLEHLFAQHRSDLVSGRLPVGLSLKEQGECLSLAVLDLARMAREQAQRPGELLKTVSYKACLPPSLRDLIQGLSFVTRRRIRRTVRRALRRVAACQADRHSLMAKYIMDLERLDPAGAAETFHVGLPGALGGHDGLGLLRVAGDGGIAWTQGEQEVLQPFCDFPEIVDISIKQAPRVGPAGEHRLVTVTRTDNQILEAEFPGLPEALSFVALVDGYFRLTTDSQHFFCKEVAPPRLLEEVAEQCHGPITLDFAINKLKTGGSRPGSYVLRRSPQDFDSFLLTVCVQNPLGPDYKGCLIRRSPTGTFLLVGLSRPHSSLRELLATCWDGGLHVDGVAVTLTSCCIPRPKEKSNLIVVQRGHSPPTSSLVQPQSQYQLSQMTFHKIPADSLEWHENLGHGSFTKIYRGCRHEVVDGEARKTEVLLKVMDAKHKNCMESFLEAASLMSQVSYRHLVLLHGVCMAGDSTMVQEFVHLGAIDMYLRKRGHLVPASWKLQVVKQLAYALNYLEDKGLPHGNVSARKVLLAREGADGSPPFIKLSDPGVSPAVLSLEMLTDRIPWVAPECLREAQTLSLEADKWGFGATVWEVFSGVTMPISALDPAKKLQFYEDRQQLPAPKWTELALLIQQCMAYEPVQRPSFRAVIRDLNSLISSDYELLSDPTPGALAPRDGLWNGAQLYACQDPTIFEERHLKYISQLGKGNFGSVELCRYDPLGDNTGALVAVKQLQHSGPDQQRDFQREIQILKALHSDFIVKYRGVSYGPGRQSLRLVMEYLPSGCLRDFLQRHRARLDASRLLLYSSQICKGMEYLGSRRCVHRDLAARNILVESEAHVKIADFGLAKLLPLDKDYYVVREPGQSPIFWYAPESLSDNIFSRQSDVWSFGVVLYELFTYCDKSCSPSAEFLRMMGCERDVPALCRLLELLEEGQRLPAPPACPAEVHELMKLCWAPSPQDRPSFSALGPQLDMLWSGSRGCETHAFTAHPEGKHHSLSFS
Method: as §1, §2, §3, §4, §5, §6, §7, §8, §9, §10

FLT3 = FLT3 (Homo sapiens (Human), UniProt P36888); assay: Kinase selectivity experiment, FLT3; assay type: biochemical; conditions: read-out: Inhibitory activity against FLT3 (IC50)
Chain of FLT3 (P36888 27-993, species assumed): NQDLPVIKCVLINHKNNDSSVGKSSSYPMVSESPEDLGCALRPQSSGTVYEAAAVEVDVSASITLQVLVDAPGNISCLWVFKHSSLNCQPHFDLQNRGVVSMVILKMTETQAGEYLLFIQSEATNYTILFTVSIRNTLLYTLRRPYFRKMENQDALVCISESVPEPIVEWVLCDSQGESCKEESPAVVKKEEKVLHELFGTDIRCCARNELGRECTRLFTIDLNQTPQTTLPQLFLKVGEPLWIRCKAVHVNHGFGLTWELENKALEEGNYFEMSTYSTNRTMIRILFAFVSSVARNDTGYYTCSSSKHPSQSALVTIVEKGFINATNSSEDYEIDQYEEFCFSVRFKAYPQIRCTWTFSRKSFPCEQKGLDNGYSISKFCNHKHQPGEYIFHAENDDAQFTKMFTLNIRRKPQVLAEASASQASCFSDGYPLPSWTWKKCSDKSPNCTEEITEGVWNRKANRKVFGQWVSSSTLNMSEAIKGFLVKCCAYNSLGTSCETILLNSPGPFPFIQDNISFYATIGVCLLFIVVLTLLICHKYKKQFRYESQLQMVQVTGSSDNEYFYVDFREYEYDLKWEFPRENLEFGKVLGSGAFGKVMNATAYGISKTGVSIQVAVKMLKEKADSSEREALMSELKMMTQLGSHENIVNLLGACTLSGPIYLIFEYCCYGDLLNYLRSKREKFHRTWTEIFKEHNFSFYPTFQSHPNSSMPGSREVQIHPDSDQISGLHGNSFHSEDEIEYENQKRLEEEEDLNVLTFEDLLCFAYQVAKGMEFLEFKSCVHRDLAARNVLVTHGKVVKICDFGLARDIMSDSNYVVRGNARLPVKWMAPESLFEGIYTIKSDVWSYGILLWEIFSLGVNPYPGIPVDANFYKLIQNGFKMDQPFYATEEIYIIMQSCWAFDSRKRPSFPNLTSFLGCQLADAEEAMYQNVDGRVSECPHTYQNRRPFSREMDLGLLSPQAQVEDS
Method: as §1, §2, §3, §4, §5, §6, §7, §8, §9, §10

[1] = Oral pharmacokinetic experiment in SD rats; assay type: in vivo; conditions: for oral bioavailability relative to ibrutinib: oral 10 mg/kg; for AUC0-C(ng/h/mL) / AUC0-t (ng/h/mL) / Cmax / Tmax / half-life: oral (intragastric) 10 mg/kg; for AUC0-C(ng/h/mL) / AUC0-t (ng/h/mL) / bioavailability / Cmax / Tmax / half-life: mean n = 3; for bioavailability / Cmax / Tmax / half-life: rat, plasma; for bioavailability: oral 10 mg/kg vs intravenous 2 mg/kg
Method: SD rats were used as experimental animals and were subjected to intragastric administration in a dose of 10 mg/kg and tail-vein intravenous injection in a dose of 2 mg/kg. The tail-vein blood sampling time points in the intragastric administration were 0.17, 0.33, 0.5, 1, 1.5, 2, 4, 6, 8, 12, and 24 hours; the blood sampling time points in the intravenous administration were 0.05, 0.1, 0.17, 0.5, 1, 2, 4, 6, 8, 12, and 24 hours. 0.3 ml of whole blood was taken, and 0.1 ml of plasma after centrifugation was taken and analyzed by LC-MS.

[2] = tested on: human lung cancer cell (A549); assay: In-vitro tumor cell proliferation inhibition (CCK-8), A549; conditions: A549, 72 h, read-out: Tumor cell proliferation inhibitory activity (IC50, μM) A549
Method: The in-vitro antitumor activity assay was carried out on the synthesized compound by using different solid tumors and leukemia cell lines:
Cell lines: human lung cancer cell (A549), human mantle cell lymphoma (MINO), diffuse giant B-cell lymphoma (OCI-LY10), and human diffuse large B lymphoma (TMD-8).
Preparation method of the drug: the drug was dissolved in DMSO to make a 10 mM stock solution, and then the stock solution was diluted in a certain ratio to obtain 5 different concentrations (test concentration 100×). In-vitro culture of tumor cells:
The tumor cells A549, MINO, OCI-LY10, and TMD-8 were seeded in a 96-well plate at 4000 cells/200 μL/well and then incubated overnight at 37° C. in a 5% CO2 cell culture incubator. 2 μL of the compound was added to each well to final concentrations of 50 μM, 10 μM, 2 μM, 0.4 μM, and 0.08 μM and then incubated for 72 hours at 37° C. in a 5% CO2 cell incubator, with DMSO (2%) as a control group. […] Wells loaded with the corresponding amount of cell culture fluid the and CCK-8 solution but no cells were considered as blank controls. The absorbance (OD value) was measured at 450 nm using a microplate reader, and the obtained data was used to calculate IC50.

[3] = tested on: diffuse giant B-cell lymphoma (OCI-LY10); assay: In-vitro tumor cell proliferation inhibition (CCK-8), OCI-LY10; conditions: Homo sapiens, OCI-Ly10, 72 h, read-out: Tumor cell proliferation inhibitory activity (IC50, nM) OCI-LY10

Structure (SMILES)	pIC50 (hERG potassium channel)	hERG IC50 relative to Compound II (hERG potassium channel; IC50 ratio to Compound II)	hERG IC50 relative to ibrutinib (hERG potassium channel; IC50 ratio to ibrutinib)	pIC50 (BLK)	pIC50 (FGR)	pIC50 (HCK)	pIC50 (JAK3)	pIC50 (FLT3)	oral bioavailability relative to ibrutinib [1]	AUC0-C(ng/h/mL) [1]	AUC0-t (ng/h/mL) [1]	bioavailability [1]	Cmax [1]	Tmax [1]	half-life [1]	IC50 [2]	IC50 [3]
C=CC(=O)N1CCC[C@@H](n2nc(-c3ccc(Oc4ccccc4)nc3)c3c(N)ncnc32)C1 [Compound 15a, (R)-1-(3-(4-amino-3-(6-phenoxypyridin-3-yl)-1H-pyrazolo[3,4-d]pyrimidin-1-yl)piperidin-1-yl) prop-2-en-1-one]	4.81	2.98 times	4.41 times	7.52	< 6.00	< 6.00	< 6.00	< 6.00	1.67 times	698 ng·h/mL	624 ng·h/mL	20.9%	292 ng/mL	0.333 h	6.17 h	1.56 µM	2.5 nM
C=CC(=O)N1CC[C@@H](n2nc(-c3ccc(Oc4ccccc4)nc3F)c3c(N)ncnc32)C1 [Compound 24a, (R)-1-(3-(4-amino-3-(2-fluoro-6-phenoxypyridin-3-yl)-1H-pyrazolo[3,4-d]pyrimidin-1-yl)pyrrolidin-1-yl)prop-2-en-1-one]	5.12			8.27	< 6.00	< 6.00	< 6.00	< 6.00	4.62 times	2140 ng·h/mL	2080 ng·h/mL	57.8%	548 ng/mL	0.75 h	1.7 h	2.11 µM	2.17 nM
